# Key:
# CYP3A4 = CYP3A4 (Homo sapiens, UniProt P08684); assay: Two-step luminescent P450 screen of luciferin derivatives; conditions: result in words
# [1] = tested on: CYP3A subfamily, CYP3A4, CYP3A5 and CYP3A7; assay: Two-step luminescent P450 screen of luciferin derivatives, selectivity for the CYP3A subfamily; type: biochemical, human; conditions: result in words
# Procedure: (§1) P450s are Supersomes™ purchased from Discovery Labware (BD/Gentest). […] HLM is human liver microsomes.
# (§2) 1X substrate concentration: 50 µM.
# CYP4F12 = target: T1, CYP4F12 (Homo sapiens, UniProt Q9HCS2); assay: Two-step luminescent P450 screen of luciferin derivatives; type: biochemical; conditions: result in words
# T1 construct: purchased Discovery Labware (BD/Gentest); host or cells: insect cell expression system (membrane fractions)
# T1 sequence (Q9HCS2 1-524): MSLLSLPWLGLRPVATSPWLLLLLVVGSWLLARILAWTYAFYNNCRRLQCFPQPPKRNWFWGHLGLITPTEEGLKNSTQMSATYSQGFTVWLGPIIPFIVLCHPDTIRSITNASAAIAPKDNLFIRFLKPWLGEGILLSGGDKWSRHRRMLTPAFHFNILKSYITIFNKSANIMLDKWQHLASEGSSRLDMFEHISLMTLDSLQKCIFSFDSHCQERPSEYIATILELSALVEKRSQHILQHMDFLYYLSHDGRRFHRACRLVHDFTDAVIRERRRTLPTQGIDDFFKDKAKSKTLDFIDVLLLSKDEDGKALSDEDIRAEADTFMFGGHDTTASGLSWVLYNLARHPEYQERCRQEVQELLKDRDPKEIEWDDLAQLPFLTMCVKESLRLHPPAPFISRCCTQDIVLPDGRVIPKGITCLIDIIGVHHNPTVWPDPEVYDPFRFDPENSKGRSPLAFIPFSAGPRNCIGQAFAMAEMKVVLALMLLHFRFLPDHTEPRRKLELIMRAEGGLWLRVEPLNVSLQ
# Procedure: as §1, §2
# CYP1A1 = target: T2, CYP1A1 (Homo sapiens, UniProt P04798); assay: as above; conditions: 50 µM substrate, 1 pmole P450, 37°C 30 minutes; result in words
# T2 sequence (P04798 1-512): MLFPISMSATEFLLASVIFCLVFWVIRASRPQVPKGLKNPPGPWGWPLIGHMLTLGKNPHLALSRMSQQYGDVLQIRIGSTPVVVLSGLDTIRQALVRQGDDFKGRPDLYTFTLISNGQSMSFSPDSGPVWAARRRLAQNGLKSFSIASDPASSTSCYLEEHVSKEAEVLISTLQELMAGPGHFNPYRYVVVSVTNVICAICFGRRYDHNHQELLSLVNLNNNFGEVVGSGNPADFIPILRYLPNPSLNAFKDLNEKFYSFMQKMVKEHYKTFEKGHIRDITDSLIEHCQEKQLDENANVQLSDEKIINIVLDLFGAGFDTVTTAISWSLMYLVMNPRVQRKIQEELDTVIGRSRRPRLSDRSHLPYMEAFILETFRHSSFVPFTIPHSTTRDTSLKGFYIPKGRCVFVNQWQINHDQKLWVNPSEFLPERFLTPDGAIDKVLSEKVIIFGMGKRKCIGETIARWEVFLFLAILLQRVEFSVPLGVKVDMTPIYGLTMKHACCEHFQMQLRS
# CYP1A2 = target: T3, CYP1A2 (Homo sapiens, UniProt P05177); assay: as above; type: biochemical; conditions: 50 µM substrate, 1 pmole P450; result in words
# T3 construct: purchased Discovery Labware (BD/Gentest); host or cells: insect cell expression system (membrane fractions)
# T3 sequence (P05177 2-516 limits assumed): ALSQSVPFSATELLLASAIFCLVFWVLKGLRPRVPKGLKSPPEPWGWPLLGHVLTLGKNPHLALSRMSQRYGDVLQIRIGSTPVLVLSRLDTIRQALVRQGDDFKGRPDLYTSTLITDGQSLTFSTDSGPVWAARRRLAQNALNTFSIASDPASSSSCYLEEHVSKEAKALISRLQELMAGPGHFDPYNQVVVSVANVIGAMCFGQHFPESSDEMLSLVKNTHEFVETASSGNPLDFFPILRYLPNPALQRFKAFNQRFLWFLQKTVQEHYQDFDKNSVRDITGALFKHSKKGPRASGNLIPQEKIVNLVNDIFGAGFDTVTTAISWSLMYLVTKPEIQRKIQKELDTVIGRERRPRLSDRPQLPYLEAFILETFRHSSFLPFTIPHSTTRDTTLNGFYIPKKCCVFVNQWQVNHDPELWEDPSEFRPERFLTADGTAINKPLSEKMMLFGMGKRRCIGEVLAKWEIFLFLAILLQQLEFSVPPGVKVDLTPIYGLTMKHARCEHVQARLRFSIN
# Procedure: as §1, §2
# Chain of CYP3A4 (P08684 2-503 limits assumed): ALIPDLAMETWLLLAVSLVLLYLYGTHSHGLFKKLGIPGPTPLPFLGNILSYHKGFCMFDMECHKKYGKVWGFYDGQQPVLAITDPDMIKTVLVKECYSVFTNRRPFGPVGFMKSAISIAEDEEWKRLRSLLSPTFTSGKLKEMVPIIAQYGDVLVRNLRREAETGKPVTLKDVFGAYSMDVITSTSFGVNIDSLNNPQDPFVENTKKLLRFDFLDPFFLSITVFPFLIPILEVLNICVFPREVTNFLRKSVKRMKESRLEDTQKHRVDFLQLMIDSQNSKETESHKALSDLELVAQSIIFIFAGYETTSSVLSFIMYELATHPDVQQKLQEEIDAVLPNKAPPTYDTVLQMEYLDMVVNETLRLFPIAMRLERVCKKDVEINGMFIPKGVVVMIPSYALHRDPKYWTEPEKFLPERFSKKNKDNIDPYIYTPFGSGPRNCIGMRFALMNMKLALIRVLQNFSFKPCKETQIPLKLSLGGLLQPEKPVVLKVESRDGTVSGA
Compound,P450 activity / selectivity with the derivative as substrate (CYP3A4),selectivity for three members of the CYP3A subfamily [1],P450 activity / selectivity with the derivative as substrate (CYP1A2),P450 activity / cross reactivity with the derivative as substrate (CYP4F12),P450 activity / selectivity with the derivative as substrate (CYP1A1)
Bis-luciferin-methylenediether,,,,,selective
N-isobutoxycarbonyl-aminoluciferin [N-isobutoxycarbonyl aminolucifern],,,,,strong selectivity
"Cc1cc(C)c(COc2ccc3nc(C4=N[C@@H](C(=O)O)CS4)sc3c2)c(C)c1 [6'(2,4,6-trimethylbenzyloxy)-luciferin, Luciferin 6-(2,4,6-trimethylbenzyl) ether]",substantial activity,selective,,did not show substantial cross reactivity,

# Continued, in another order:
P450 activity / selectivity with the derivative as substrate (CYP3A4),selectivity for three members of the CYP3A subfamily [1],P450 activity / selectivity with the derivative as substrate (CYP1A2),Compound,P450 activity / cross reactivity with the derivative as substrate (CYP4F12),P450 activity / selectivity with the derivative as substrate (CYP1A1)
substantial activity,selective,,"O=C(O)[C@H]1CSC(c2nc3ccc(OCc4ccccc4C(F)(F)F)cc3s2)=N1 [6'(o-trifluoromethylbenzyloxy)-luciferin, Luciferin 2-trifluoromethylbenzyl ether]",did not show substantial cross reactivity,
,,preferred substrate,"COc1ccc2nc(C3=N[C@@H](C(=O)O)CS3)ccc2c1 [Quinolylluciferin 6-methyl ether, 2-(6-methoxyquinolin-2-yl)-4,5-dihydrothiazole-4-carboxylate]",,

# Reference: patent EP1935986B1, “Luminogenic and fluorogenic compounds and methods to detect molecules or conditions” (priority 2005, dated 2006)
